Test [1] has as its target T1, native 5-HT2A receptor (Rattus norvegicus, UniProt P14842).
T1 construct: expressed in transfected cells; host or cells: COS-7
In kind it is binding. Particulars: 3H-ketanserin saturation.
Method: (§1) Bmax values were determined by a BCA assay.
(§2) BMAX values were determined by a BCA assay.

Test [2] concerns the target T2, cys→lys mutant 5-HT2A receptor (Rattus norvegicus, UniProt P14842, C322K). To be noted: saturation analysis.
Method: as §1, §2
The subject of test [3] is 5-HT2A cys→lys mutant receptor. To be noted: inverse agonism; for reduction of constitutively activated IP basal activity: mutated 5-HT2A cys→lys receptor.
Test [4] deals with T2, cys→lys mutant 5-HT2A receptor. It is filed as binding. Also on record: expressed in transfected cells; host or cells: COS-7. Particulars: for change in binding affinity at the mutant 5-HT2A receptor: cys→lys mutant versus native, 3H-ketanserin. How it is done: Saturation experiments were performed by using [^3 H]ketanserin (0.1-5.0 nM).
Another test relates to 5-HT2C receptor. It is filed as binding, rat. Particulars: COS-7; native versus ser→lys and ser→phe mutant.
The target in test [5] is T1, native 5-HT2A receptor. In kind it is cell-based. To be noted: 10 μM 5-HT.
The subject of test [6] is basal levels of IP production. In kind it is cell-based, rat. Particulars: COS-7, no agonist.

Like-named read-outs stand apart in the source and are kept apart here.

T2 sequence (P14842 whole entry C322K): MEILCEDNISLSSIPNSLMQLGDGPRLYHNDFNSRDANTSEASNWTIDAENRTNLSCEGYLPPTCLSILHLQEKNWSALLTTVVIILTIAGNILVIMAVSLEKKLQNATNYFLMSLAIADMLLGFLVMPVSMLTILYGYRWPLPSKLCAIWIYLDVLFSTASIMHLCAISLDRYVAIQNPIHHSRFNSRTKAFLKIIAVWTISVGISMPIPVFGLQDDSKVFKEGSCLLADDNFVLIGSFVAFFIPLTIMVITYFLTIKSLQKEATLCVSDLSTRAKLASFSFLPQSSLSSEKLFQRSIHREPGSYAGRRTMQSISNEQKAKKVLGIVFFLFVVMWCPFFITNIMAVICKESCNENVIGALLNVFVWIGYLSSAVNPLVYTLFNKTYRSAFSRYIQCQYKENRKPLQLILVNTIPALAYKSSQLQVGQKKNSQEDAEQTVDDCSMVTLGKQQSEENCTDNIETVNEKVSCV
T1 sequence (P14842 whole entry): as the sequence (P14842 whole entry C322K) above, with K322C counted along it

Turning to `O=C(c1ccc(F)cc1)C1CCN(CCn2c(=O)[nH]c3ccccc3c2=O)CC1` [^3 H-ketanserin], on native 5-HT2A receptor [1], the BMAX is 193 ± 37 fmol/mg. The “KD of 3H-ketanserin, native versus mutant” value in test [2] was “did not differ between the native and mutant receptors”.
With `O=C(CCCN1CCC2(CC1)C(=O)NCN2c1ccccc1)c1ccc(F)cc1` [spiperone], in test [3], the “reduction of constitutively activated IP basal activity” value is recorded as “reduce the constitutively activated IP basal activity”. In test [4], the “change in binding affinity at the mutant 5-HT2A receptor” value (shortened to “change in binding affinity”) is on record as “no change in binding affinity”.
With `CN1C[C@@H](NS(=O)(=O)N(C)C)C[C@@H]2c3cccc4c3c(cn4C)C[C@H]21` [^3 H-mesulergine], the “5-HT2C receptor density (3H-mesulergine saturation)” value with 5-HT2C receptor is given as “greater in cells transfected with native receptors than in cells transfected with either the ser→lys or the ser→phe mutant receptors”.
On to `COc1cc(CC(C)N)c(OC)cc1Br` (stereo not shown) [DOB], for which the “fold increase in affinity (Ki)” value in test [4] (rat, cos-7 cells) worked out at 7.4 fold.
In the case of `NCCc1c[nH]c2ccc(O)cc12` [5-HT, serotonin], the “additional increase in IP production upon addition of 5-HT” value on native 5-HT2A receptor [5] was “additional increase in IP production”.
On to `CN1CCN2c3ccccc3Cc3ccccc3C2C1` (stereo not shown) [mianserin], for which the “change in binding affinity” value in test [4] is reported as “apparent decease in the binding affinity”.
Turning to `CN1CCN(C2=Nc3ccccc3Oc3ccc(Cl)cc32)CC1` [loxapine], the “reduction of constitutively activated IP basal activity” value in test [3] is listed as “reduce the constitutively activated IP basal activity”.
As to `COc1cc(CC(C)N)c(OC)cc1C` (stereo not shown) [DOM], the “fold increase in affinity (Ki)” value in test [4] (cys→lys mutant versus native 5-HT2A receptor) was 5 fold.
Regarding `O=C(c1ccc(F)cc1)C1CCN(CCn2c(=O)[nH]c3ccccc3c2=O)CC1` [ketanserin], the “decrease of the constitutive IP stimulation” value in test [3] (COS-7, 5-HT2A cys→lys receptor) was found to be 80%. The “change in binding affinity” value in test [4] was “no change in binding affinity”.

B1: ser→phe mutant 5-HT2C receptors: rat 5-HT2C receptor with serine #312 mutated to phenylalanine (protein, UniProt P08909 33-460, looked up, variant S312F)
5-hydroxytryptamine receptor …: IVTDTFNSSDGGRLFQFPDGVQNWPALSIVVIIIMTIGGNILVIMAVSMEKKLHNATNYFLMSLAIADMLVGLLVMPLSLLAILYDYVWPLPRYLCPVWISLDVLFSTASIMHLCAISLDRYVAIRNPIEHSRFNSRTKAIMKIAIVWAISIGVSVPIPVIGLRDESKVFVNNTTCVLNDPNFVLIGSFVAFFIPLTIMVITYFLTIYVLRRQTLMLLRGHTEEELANMSLNFLNCCCKKNGGEEENAPNPNPDQKPRRKKKEKRPRGTMQAINNEKKAFKVLGIVFFVFLIMWCPFFITNILSVLCGKACNQKLMEKLLNVFVWIGYVCSGINPLVYTLFNKIYRRAFSKYLRCDYKPDKKPPVRQIPRVAATALSGRELNVNIYRHTNERVARKANDPEPGIEMQVENLELPVNPSNVVSERISSV
On to B1, for which the “fold increase in basal levels of IP production compared with cells expressing native 5-HT2C receptors” value in test [6] turned out to be 2 fold.

The values are drawn from US6255089A (priority 1998, dated 2001).
